US20150018566A1, “TUBULIN BINDING AGENTS” (priority 2011, published 2015)

Experiments:
HUVECs [1] = experiment: Immunofluorescence staining of the microtubule; assay type: cell-based, human; conditions: 1 μM, 30 minutes, α-tubulin staining
Method: In order to confirm that test compounds are able to interfere with cells' tubulin cytoskeleton, immunofluorescence staining was performed. The effect of test compounds on the tubulin reorganization was visualised by staining of microtubules using an α-tubulin antibody and the cell nuclei using 4′,6-diamidino-2-phenylindole (DAPI).
The effect of the compounds on the microtubule disruption was examined by staining for α-tubulin. Sterile cover slips were placed in each well of a 6-well plate and 1×10^6 cells/ml (1 ml) HUVECs were seeded and allowed to attach on the cover slips overnight at 37° C. The following day the medium was removed from the wells, replaced by 1 μM of test compounds diluted in medium and incubated for 30 minutes at 37° C. Next, the medium was removed and the cells were fixed in pre-cooled methanol (1 ml) at −20° C. for 30 minutes. Then, the cells were washed twice with 1 ml PBS (5 minutes each time). The primary monoclonal antibody for a-tubulin was diluted in PBS (1:200) and added (1 ml) in each well for 1 h at room temperature (RT). After that, the cells were washed three times with 1 ml PBS and incubated with 1 ml of secondary Alexa Fluor 488 antibody diluted in PBS (1:1000) for 30 minutes at RT in the dark. The cells were washed for a further three times with 1 ml PBS and allowed to air-dry for 10 minutes. The cover slips containing the attached cells were mounted on microscopy slides using ProLong® gold antifade reagent with DAPI (for nuclear staining) and stored at 4° C. until time for analysis. Images were taken using an Olympus FV1000 Point Scanning Confocal Microscope provided by the Department of Biochemistry, TCD. Experiments were performed in duplicate at two independent times. The results were presented as images of the microtubule disruption of endothelial cells.

HUVECs [2] = experiment: Analysis of endothelial cell morphology; assay type: cell-based, human; conditions: for effect on endothelial cell morphology: 40 minutes exposure; for reversibility of the morphology effect: 3 h after drug washout
Method: Tubulin inhibitors are not only known for their anti-mitotic effect but also for their anti-vascular activity. Treatment with such agents was previously shown to cause vascular shutdown independently of a direct cytotoxic effect on tumour cells. […] The 1 h incubation period (after drug washout) aimed to identify any observable morphological changes of endothelial cells; however the 3 h incubation period served to indicate any signs of reversibility of this effect.
The effect of test compounds on endothelial cells' morphology was examined. 1×10^6 cells/ml HUVECs (1 ml) were seeded into 6-well plates and incubated overnight at 37° C. The next day, the medium was removed and replaced by control solutions (0.1% DMSO in medium) and test compounds diluted in fresh medium. The cells were incubated for 40 minutes at 37° C. Following that, each well was washed with medium to remove detached cells and incubated with fresh medium for a further 1 h or 3 h at 37° C. Next, the medium was removed and 0.5% crystal violet solution was prepared in 20% ethanol and 1 ml was added in each well for 15 minutes at RT. The wells were then washed 3 times with d. water (5 minutes each time). Wells were allowed to air dry and cell morphology was examined under an Olympus CKX41 inverted microscope using a x4 objective. Images were captured with an E-330 SLR camera system 1 h and 3 h after the washout of compounds. Digital images were processed using Cell̂ A software (Mason Technology, Ireland). The experiments were performed in triplicate and the results were presented as images of the morphological changes of endothelial cells after 1 h and 3 h of drug washout.

rat aortic ring cultures [3] = experiment: Aortic ring assay (anti-vascular model); assay type: cell-based; conditions: for anti-vascular effect on existing microvessel network: 100 nM
Method: The aortic ring assay is an ideal assay for testing the activity of anti-vascular, anti-angiogenic or pro-angiongenic agents. This method was originally developed and modified by Nicosia. The aorta can be excised from mice or rats, cut into ˜1 mm rings and cultured in either basement membrane matrix (matrigel) or collagen gel. Following incubation for several days the rings start to generate outgrowths of branching microvessels which are lined by endothelial cells and supported by pericytes and fibroblasts. The angiogenic response of the aorta is a self-limited process regulated by endogenous growth factors including bFGF [13], VEGF [14], PDGF [15] and angiopoietins.
The rat aorta model is an ex vivo assay which combines advantages of both in vitro and in vivo models. The process of angiogenesis takes place in a defined culture environment which can be easily adapted to different experimental conditions according to the requirement of the study. The cells of the aortic outgrowth have not been modified by repeated passages in culture and thus newly formed microvessels reproduce the characteristics of the vasculature formed during angiogenesis in vivo [17-18]. There is no influx of leukocytes from circulating blood therefore inflammatory complications which affect the interpretation of in vivo assays are minimised. For the purpose of this study, rat aortic ring cultures were used to investigate firstly the anti-vascular and then the anti-angiogenic activity of test compounds.
The successful growth of the aortic rings into a mircovessel network was dependent on several factors including (i) the amount of periaortic fibroadipose tissue left on the ring, (ii) the orientation of the ring, the way which the ring was embedded into the matrigel and (iii) the volume of the matrigel used.
The aortic ring assay is an ex vivo assay which allows the analyst to examine the inhibition/stimulation of angiogenesis as well as the breakdown of existing vasculature. Basement membrane matrix (matrigel) was stored at −20° C. Prior to use, matrigel vial was placed on ice and kept at 4° C. overnight in order to thaw. The matrigel was kept on ice at all times for the duration of the experiment. Aortic rings were obtained by excising the thoracic aorta of 5-10 weeks old Wistar male rats and removing the fibroadipose tissue from the aortic wall. The rings were obtained by cross-sectioning the aorta at ˜1 mm intervals, removed any blood clots by washing several times with EBM-2. Matrigel (80 μl) was placed uniformly in each well of a 12-well plate and the aortic rings were then placed individually in between the matrigel layer with the lumen perpendicular to the surface of the plate. The matrigel solution was allowed to solidify for 30-40 minutes at 37° C. and 1 ml EBM-2 medium (supplemented with 2% FBS and […] streptomycin/penicillin solution) was added to each culture. The aortic rings were kept in a humidified CO2 incubator at 37° C. and fresh medium was replaced three times a week starting from day 3. Once an established microvessel network was developed (day 7-9), test compounds diluted in EBM-2 medium (1 ml) were added to each well and incubated at 37° C. for 24 h. The cultures were monitored for microvessel breakdown over time and images were taken 1 h, 4 h and 24 h after treatment using an Olympus CKX41 inverted microscope. Images were captured with an E-330 SLR camera system and processed using Cell̂ A software. Each compound concentration was tested in duplicate. Results were presented as images showing the microvessel breakdown at each time point.

rat aortic ring cultures [4] = experiment: Aortic ring assay (anti-angiogenic effect); assay type: cell-based

SMILES	microtubule disruption (HUVECs [1])	effect on endothelial cell morphology (HUVECs [2]; 0.1 μM)	reversibility of the morphology effect (HUVECs [2])	anti-vascular effect on existing microvessel network (rat aortic ring cultures [3]; 4 h of treatment)	anti-vascular effect on existing microvessel network (rat aortic ring cultures [3]; 24 h of treatment)	anti-angiogenic effect (microvessel formation) (rat aortic ring cultures [4]; 1 nM)	anti-angiogenic effect (microvessel formation) (rat aortic ring cultures [4]; 10 nM)	anti-angiogenic effect (microvessel formation) (rat aortic ring cultures [4]; 100 nM)	anti-angiogenic effect (microvessel formation) (rat aortic ring cultures [4]; 50 nM)	effect on endothelial cell morphology (HUVECs [2]; 1 μM)	anti-vascular effect on established microvessel network (rat aortic ring cultures [3]; 0.1 μM)	anti-vascular effect on established microvessel network (rat aortic ring cultures [3]; 1 μM, 24 h incubation)	anti-vascular effect on established microvessel network (rat aortic ring cultures [3]; 1 nM)	anti-vascular effect on established microvessel network (rat aortic ring cultures [3]; 10 nM)	anti-vascular effect on established microvessel network (rat aortic ring cultures [3]; 50 nM, 4 h of treatment)	anti-vascular effect on established microvessel network (rat aortic ring cultures [3]; 50 nM, 24 h)
COc1ccc(C2=CC(=O)CCc3c2cc(OC)c(OC)c3OC)cc1O [Compound 1, (Z)-8,9-dihydro-5-(3-hydroxy-4-methoxyphenyl)-1,2,3-trimethoxybenzo[7]annulen-7-one]	Microtubule disruption was observed	modifying the cells' structure	cells regained their shape	evident changes in the microvessels' structure	greater disruption	no inhibitory effect	significantly (p<0.01) inhibited the formation of microvessels	significantly (p<0.01) inhibited the formation of microvessels	–	–	–	–	–	–	–	–
COc1ccc(C2=CC(=O)CCc3c2cc(OC)c(OC)c3OC)cc1N [Compound 28, 2-methoxy-5-(2,3,4-trimethoxy-7-oxo-6,7-dihydro-5H-benzo[7]annulen-9-yl)benzenaminium chloride]	Microtubule disruption was observed	modifying the cells' structure	cells regained their shape	evident changes in the microvessels' structure	greater disruption	–	did not demonstrate a decrease in microvessel formation	complete growth inhibition	complete growth inhibition	–	–	–	–	–	–	–
COc1ccc(C2=CC(=O)CCc3c2cc(OC)c(OC)c3OC)cc1OC(=O)C(CC(C)C)NC(=O)C(O)C(N)Cc1ccccc1.Cl (stereo not shown) [Compound 44]	induce microtubule disruption	minor effect	reversible effect	–	–	–	slight decrease	significant (p<0.05) reduction	–	cell monolayer was disturbed	did not result in a clear anti-vascular effect	apparent microvessel breakdown	–	–	–	–
COc1ccc(C2=CC(=O)COc3c2cc(OC)c(OC)c3OC)cc1OC(=O)C(CC(C)C)NC(=O)C(O)C(N)Cc1ccccc1.Cl (stereo not shown) [Compound 45, 2-methoxy-5-(7,8,9-trimethoxy-3-oxo-2H-1-benzoxepin-5-yl)phenyl 2-(3-amino-2-hydroxy-4-phenylbutanamido)-4-methylpentanoate]	disruption of microtubule organisation	severe effect	did not seem to regain their original shape	–	–	–	insignificantly decreased	–	almost complete inhibition	severe effect	–	–	did not demonstrate any obvious anti-vascular activity	did not demonstrate any obvious anti-vascular activity	sufficient to disrupt the microvessel network	more evident
